Source: patent publication US20050075375A1 (priority 2003, published 2005)
Like-named read-outs stand apart in the source and are kept apart here.

Tested on: monocistronic NK5.1 HCV replicon in Huh7 cells
Experiment: HCV replicon assay, monocistronic replicon cell line
Format: cell-based, hepatitis C virus
Details: read-out: Mono EC50 Median
Outline: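 Huh7 cells carrying the monocistronic NK5.1 replicon, seeded 24 h before dosing, were exposed to six-point half-log compound series (0.6% DMSO) for 3 days at 37 °C. Replicon RNA was quantified by TaqMan RT-PCR, normalised to GAPDH and compared with DMSO controls to derive EC50.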

[1] = Hepatitis C virus, Huh-7, 72 h, Table 1, monocistronic replicon in Huh7 cells, 3 days incubation, HCV RNA/GAPDH RNA by TaqMan RT-PCR
[2] = Hepatitis C virus, Huh-7, monocistronic NK5.1 HCV replicon in Huh7 cells, median value

Structure (SMILES)	EC50 [1] [µM]	EC50 (Table 1, monocistronic replicon in Huh7 cells, 3 days incubation, HCV RNA/GAPDH RNA by TaqMan RT-PCR) [µM]	EC50 [2] [µM]
Cc1cccnc1-c1noc(-c2ccc([N+](=O)[O-])cc2Cl)n1 [Compound 182, 2-[5-(2-Chloro-4-nitro-phenyl)-[1,2,4]oxadiazol-3-yl]-3-methyl-pyridine]	12		
COc1ccc2ccccc2c1-c1nc(-c2ncccc2C)no1 [Compound 183]	> 32		
COc1cccc(-c2nc(-c3ncccc3C)no2)c1O [Compound 184, 2-Methoxy-6-[3-(3-methyl-pyridin-2-yl)-[1,2,4]oxadiazol-5-yl]-phenol]	0.68		
COc1ccc(O)c(-c2nc(-c3ncccc3C)no2)c1 [Compound 185, 4-Methoxy-2-[3-(3-methyl-pyridin-2-yl)-[1,2,4]oxadiazol-5-yl]-phenol]	1.6		
Cc1cccnc1-c1noc(-c2cc(Cl)ccc2O)n1 [Compound 186, 4-Chloro-2-[3-(3-methyl-pyridin-2-yl)-[1,2,4]oxadiazol-5-yl]-phenol]	3.9		
Cc1cccnc1-c1noc(-c2cc(F)ccc2O)n1 [Compound 187]		6.5	
Cc1cccnc1-c1noc(-c2ccccc2O)n1 [Compound 188, 2-[3-(3-Methyl-pyridin-2-yl)-[1,2,4]oxadiazol-5-yl]-phenol]	> 32		
Cc1cccnc1-c1noc(-c2c(O)ccc3ccccc23)n1 [Compound 189, 1-[3-(3-Methyl-pyridin-2-yl)-[1,2,4]oxadiazol-5-yl]-naphthalen-2-ol]	1.2		
Cc1cccnc1-c1noc(-c2cc(Br)ccc2O)n1 [Compound 190, 4-Bromo-2-[3-(3-methyl-pyridin-2-yl)-[1,2,4]oxadiazol-5-yl]-phenol]	0.69		
Cc1cccnc1-c1noc(-c2cc([N+](=O)[O-])ccc2Cl)n1 [Compound 191, 2-[5-(2-Chloro-5-nitro-phenyl)-[1,2,4]oxadiazol-3-yl]-3-methyl-pyridine]	2		
Cc1ccc(O)c(-c2nc(-c3ncccc3C)no2)c1 [Compound 192, 4-Methyl-2-[3-(3-methyl-pyridin-2-yl)-[1,2,4]oxadiazol-5-yl]-phenol]	> 32		
COc1ccc(OC)c(-c2nc(-c3nccc4ccccc34)no2)c1 [Compound 193, 1-[5-(2,5-Dimethoxy-phenyl)-[1,2,4]oxadiazol-3-yl]-isoquinoline]	1.3		
Cc1ccc(O)c(-c2nc(-c3nccc4ccccc34)no2)c1 [Compound 194, 2-(3-Isoquinolin-1-yl-[1,2,4]oxadiazol-5-yl)-4-methyl-phenol]	> 10		
O=[N+]([O-])c1ccc(O)c(-c2nc(-c3nccc4ccccc34)no2)c1 [Compound 195, 2-(3-Isoquinolin-1-yl-[1,2,4]oxadiazol-5-yl)-4-nitro-phenol]	> 32		
Oc1ccc(O)c(-c2nc(-c3nccc4ccccc34)no2)c1 [Compound 196, 2-(3-Isoquinolin-1-yl-[1,2,4]oxadiazol-5-yl)-benzene-1,4-diol]	> 32		
COc1cccc(-c2nc(-c3nccc4ccccc34)no2)c1 [Compound 197, 1-[5-(3-Methoxy-phenyl)-[1,2,4]oxadiazol-3-yl]-isoquinoline]	> 32		
Oc1ccc(Cl)cc1-c1nc(-c2nccc3ccccc23)no1 [Compound 198, 4-Chloro-2-(3-isoquinolin-1-yl-[1,2,4]oxadiazol-5-yl)-phenol]	> 32		
Oc1ccc(F)cc1-c1nc(-c2nccc3ccccc23)no1 [Compound 199, 4-Fluoro-2-(3-isoquinolin-1-yl-[1,2,4]oxadiazol-5-yl)-phenol]	1.1		
c1ccc2c(-c3nc(-c4nccc5ccccc45)no3)cccc2c1 [Compound 200, 1-(5-Naphthalen-1-yl-[1,2,4]oxadiazol-3-yl)-isoquinoline]	> 32		
CN(C)c1ccc(-c2nc(-c3nccc4ccccc34)no2)c(O)c1 [Compound 201, 5-Dimethylamino-2-(3-isoquinolin-1-yl-[1,2,4]oxadiazol-5-yl)-phenol]	> 32		
COc1ccc(O)c(-c2nc(-c3nccc4ccccc34)no2)c1 [Compound 202, 2-(3-Isoquinolin-1-yl-[1,2,4]oxadiazol-5-yl)-4-methoxy-phenol]	1.9		
COc1ccc2ccccc2c1-c1nc(-c2nccc3ccccc23)no1 [Compound 203, 1-[5-(2-Methoxy-naphthalen-1-yl)-[1,2,4]oxadiazol-3-yl]-isoquinoline]	23		
Oc1ccc(Br)cc1-c1nc(-c2nccc3ccccc23)no1 [Compound 204]	1.6		

Structure (SMILES)	EC50 [1] [µM]	EC50 (Table 1, monocistronic replicon in Huh7 cells, 3 days incubation, HCV RNA/GAPDH RNA by TaqMan RT-PCR) [µM]	EC50 [2] [µM]
COc1ccc(-c2nc(-c3nccc4ccccc34)no2)c(O)c1 [Compound 205, 2-(3-Isoquinolin-1-yl-[1,2,4]oxadiazol-5-yl)-5-methoxy-phenol]	1		
Oc1ccccc1-c1nc(-c2nccc3ccccc23)no1 [Compound 206]	1.4		
COc1cccc(-c2nc(-c3ncccc3C(F)(F)F)no2)c1O [Compound 207, 2-Methoxy-6-[3-(3-trifluoromethyl-pyridin-2-yl)-[1,2,4]oxadiazol-5-yl]-phenol]	17		
COc1ccc(O)c(-c2nc(-c3ncccc3C(F)(F)F)no2)c1 [Compound 208, 4-Methoxy-2-[3-(3-trifluoromethyl-pyridin-2-yl)-[1,2,4]oxadiazol-5-yl]-phenol]	3.5		
COc1cccc(-c2nc(-c3nccc4ccccc34)no2)c1O [Compound 209, 2-(3-Isoquinolin-1-yl-[1,2,4]oxadiazol-5-yl)-6-methoxy-phenol]	7.4		
Oc1ccc2ccccc2c1-c1nc(-c2nccc3ccccc23)no1 [Compound 210, 1-(3-Isoquinolin-1-yl-[1,2,4]oxadiazol-5-yl)-naphthalen-2-ol]	2.4		
COc1ccc(-c2nc(-c3ncccc3C(F)(F)F)no2)c(O)c1 [Compound 211, 5-Methoxy-2-[3-(3-trifluoromethyl-pyridin-2-yl)-[1,2,4]oxadiazol-5-yl]-phenol]	11		11
O=[N+]([O-])c1ccc(-c2nc(-c3nccc4ccccc34)no2)c(Cl)c1 [Compound 212]	> 32		> 32
Oc1ccc(Br)cc1-c1nc(-c2ccc(C(F)(F)F)cn2)no1 [Compound 213]	25		25
COc1ccc(OC)c(-c2nc(-c3ccc(C(F)(F)F)cn3)no2)c1 [Compound 214, 2-[5-(2,5-Dimethoxy-phenyl)-[1,2,4]oxadiazol-3-yl]-5-trifluoromethyl-pyridine]	18		18
O=[N+]([O-])c1cccc(-c2nc(-c3ccc(C(F)(F)F)cn3)no2)c1 [Compound 215, 2-[5-(3-Nitro-phenyl)-[11,2,4]oxadiazol-3-yl]-5-trifluoromethyl-pyridine]	31		31
Oc1ccc(O)c(-c2nc(-c3ccc(C(F)(F)F)cn3)no2)c1 [Compound 217, 2-[3-(5-Trifluoromethyl-pyridin-2-yl)-[1,2,4]oxadiazol-5-yl]-benzene-1,4-diol]	2.1		2.1
Oc1ccc(Cl)cc1-c1nc(-c2ccc(C(F)(F)F)cn2)no1 [Compound 218, 4-Chloro-2-[3-(5-trifluoromethyl-pyridin-2-yl)-[1,2,4]oxadiazol-5-yl]-phenol]	18		18
Oc1ccc(F)cc1-c1nc(-c2ccc(C(F)(F)F)cn2)no1 [Compound 219, 4-Fluoro-2-[3-(5-trifluoromethyl-pyridin-2-yl)-[1,2,4]oxadiazol-5-yl]-phenol]	> 32		> 32
COc1cccc(-c2nc(-c3ccc(C(F)(F)F)cn3)no2)c1 [Compound 220, 2-[5-(3-Methoxy-phenyl)-[1,2,4]oxadiazol-3-yl]-5-trifluoromethyl-pyridine]	> 32		> 32
Oc1ccc2ccccc2c1-c1nc(-c2ccc(C(F)(F)F)cn2)no1 [Compound 221, 1-[3-(5-Trifluoromethyl-pyridin-2-yl)-[1,2,4]oxadiazol-5-yl]-naphthalen-2-ol]	4.8		4.8
COc1ccc(-c2nc(-c3ccc(C(F)(F)F)cn3)no2)c(O)c1 [Compound 222, 5-Methoxy-2-[3-(5-trifluoromethyl-pyridin-2-yl)-[1,2,4]oxadiazol-5-yl]-phenol]	> 32		> 32
Oc1ccccc1-c1nc(-c2ccc(C(F)(F)F)cn2)no1 [Compound 223]	19		19
COc1ccc(O)c(-c2nc(-c3ccc(C(F)(F)F)cn3)no2)c1 [Compound 224, 4-Methoxy-2-[3-(5-trifluoromethyl-pyridin-2-yl)-[1,2,4]oxadiazol-5-yl]-phenol]	3.2		3.2
Cc1ccc(O)c(-c2nc(-c3ccc(C(F)(F)F)cn3)no2)c1 [Compound 225, 4-Methyl-2-[3-(5-trifluoromethyl-pyridin-2-yl)-[1,2,4]oxadiazol-5-yl]-phenol]	7.5		7.5
O=[N+]([O-])c1ccc(Cl)c(-c2nc(-c3ccc(C(F)(F)F)cn3)no2)c1 [Compound 226, 2-[5-(2-Chloro-5-nitro-phenyl)-[1,2,4]oxadiazol-3-yl]-5-trifluoromethyl-pyridine]	4.3		4.3
FC(F)(F)c1ccc(-c2noc(-c3cccc4ccccc34)n2)nc1 [Compound 227, 2-(5-Naphthalen-1-yl-[1,2,4]oxadiazol-3-yl)-5-trifluoromethyl-pyridine]	> 32		> 32
Oc1ccc(Br)cc1-c1nc(-c2ncccc2-c2ccccc2)no1 [Compound 228, 4-Bromo-2-[3-(3-phenyl-pyridin-2-yl)-[1,2,4]oxadiazol-5-yl]-phenol]	2.2		2.2
